Where a name gives a salt, the structure may show the parent alone.
Legend:
[1] = system: human HT-29 cell xenografts; assay: Antitumor activity (tumor growth inhibition, regression) in mice with human HT-29 colorectal cancer xenografts; assay type: in vivo; settings: for % Tumor Growth Inhibition: Compound I 25 mg/kg bid, cetuximab 40 mg/kg 2x/wk, irinotecan HCl 40 mg/kg q4d x5, alone or combined
Text: (§1) Mice were implanted with human HT-29 cell xenografts. The mice, cell line used, and implantation are described below.
Tumor measurements were taken once or twice per week. All animals were individually followed throughout the experiment.

[2] = system: human HT-29 cell xenografts; assay: Assessment of survival (increased life span) in mice with human HT-29 xenografts; assay type: in vivo; settings: for 50% Treatment Days: median survival, Kaplan Meier, vehicle 30 days, same doses
Description: as §1
For survival assessment, the percent of increased life space (ILS) was calculated as: 100×[(median survival day of treated group−median survival day of control group)/median survival day of control group]. Median survival was determined utilizing Kaplan Meier survival analysis. […] Differences between groups were considered significant when the probability value (p) was ≦0.05.

[3] = number of mice out of 10 per group, same doses

SMILES: CCCS(=O)(=O)Nc1ccc(F)c(C(=O)c2c[nH]c3ncc(-c4ccc(Cl)cc4)cc23)c1F [Compound I, propane-1-sulfonic acid {3-[5-(4-chlorophenyl)-1H-pyrrolo[2,3-b]pyridine-3-carbonyl]-2,4-difluoro-phenyl}-amide]
- Mean Tumor Volume (mm^3) End Study ([1]; Compound I 25 mg/kg bid po, cetuximab 40 mg/kg 2x/wk ip, irinotecan HCl 40 mg/kg q4d x5 ip, alone or combined, end of study day 32): 563.72 mm^3
- % Tumor Growth Inhibition [1]: 76%
- Mean Tumor Volume (mm^3) Start Study ([1]; baseline at start of treatment (day 11 post implant)): 136.24 mm^3
- % Inhibition end of study Day: 32 ([1]; same doses): 76%
- % T/C end of study Day: 32 ([1]; same doses): 24%
- % ILS ([2]; increased life span versus vehicle, Compound I 25 mg/kg bid, cetuximab 40 mg/kg 2x/wk, irinotecan HCl 40 mg/kg q4d x5, alone or combined): 80%
- 50% Treatment Days [2]: 54 days

SMILES: CCc1c2c(nc3ccc(OC(=O)N4CCC(N5CCCCC5)CC4)cc13)-c1cc3c(c(=O)n1C2)COC(=O)[C@]3(O)CC [Irinotecan HCl, irinotecan hydrochloride, reference compound]
- % Tumor Growth Inhibition [1]: 59%
- Complete Regression [1, 3]: 0
- Partial Regression [1, 3]: 0
- % Inhibition end of study Day: 32 ([1]; same doses): 59%
- % T/C end of study Day: 32 ([1]; same doses): 41%
- 50% Treatment Days [2]: 35 days

— US20120045433A1, “COMBINATION THERAPY” (priority 2010, published 2012)
